Values of other authors, collected in patent US20230110028A1, “OXYBATE POLYETHYLENE GLYCOL PRODRUGS” (Tris Pharma, Inc., priority 2021, published 2023).

Assays:
[1] = in vivo
[2] = forms gamma-butyrolactone (GBL) at pH below 7
[3] = not given; remark: listed apart in the source

Row | Compound | Solubility [3] [mg/mL] | further results
1 | O=C(O)CCCO [oxybate, gamma hydroxybutyrate] |  | elimination half-life [1]: 30 to 40 min
2 | O=C(O)CCCO [Sodium oxybate] |  | stability in acidic medium [2]: unstable; solubility in aqueous solutions: very soluble
3 | Sulfobutyl ether-β-cyclodextrin | ≥500 | 
4 | Randomly methylated-β-cyclodextrin | ≥500 | 
5 | Hydroxypropyl-β-cyclodextrin | ≥600 | 
